One test has as its target T1, 5-lipoxygenase (Homo sapiens, UniProt P09917).
T1 construct: Whole human blood is collected by venipuncture into EDTA; endogenous in cells; host or cells: leukocytes isolated from whole human blood (dextran sedimentation, hypotonic lysis)
T1 sequence (P09917 1-674): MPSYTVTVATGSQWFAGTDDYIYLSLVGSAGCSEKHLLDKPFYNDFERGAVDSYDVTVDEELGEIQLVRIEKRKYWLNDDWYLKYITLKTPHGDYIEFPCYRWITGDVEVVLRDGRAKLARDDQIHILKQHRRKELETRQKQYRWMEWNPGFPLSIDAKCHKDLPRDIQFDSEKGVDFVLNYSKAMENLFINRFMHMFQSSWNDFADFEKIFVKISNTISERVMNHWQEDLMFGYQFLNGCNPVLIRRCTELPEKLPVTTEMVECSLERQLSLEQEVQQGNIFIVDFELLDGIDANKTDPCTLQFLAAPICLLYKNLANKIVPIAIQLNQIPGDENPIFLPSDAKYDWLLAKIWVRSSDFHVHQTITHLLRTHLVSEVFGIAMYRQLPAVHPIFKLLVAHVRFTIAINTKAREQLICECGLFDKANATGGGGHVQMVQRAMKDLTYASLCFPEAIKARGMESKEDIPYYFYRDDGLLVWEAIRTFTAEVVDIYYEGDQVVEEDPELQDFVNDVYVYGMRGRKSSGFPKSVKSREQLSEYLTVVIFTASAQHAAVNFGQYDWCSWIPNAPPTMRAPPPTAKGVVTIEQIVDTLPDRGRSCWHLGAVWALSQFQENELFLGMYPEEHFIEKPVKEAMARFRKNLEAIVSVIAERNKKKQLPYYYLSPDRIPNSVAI
The test can be described thus: 5-Lipoxygenase inhibition in human leukocytes (A23187-stimulated, LTC4 radioimmunoassay). It is filed as cell-based. The conditions noted are these: human leukocytes, A23187 Calcium Ionophore, LTC4 formed; read-out: IC50. As for the experimental part:
The test method described below measures the ability of compounds to inhibit 5-lipoxygenase activity in human leukocytes.
Whole human blood is collected by venipuncture into EDTA (1.4 mL of 0.25M per 60 mL of whole blood). The red blood cells are sedimented with a 6% dextran/0.9% sodium chloride solution at a ratio of 25 mL whole blood to 15 mL dextran solution. The blood/dextran combination is mixed by inversion and the red blood cells are allowed to settle out for 45 minutes at ambient temperature. The plasma/dextran supernatant is removed then centrifuged at ambient temperature at 3000 rpm for 10 minutes. The plasma/dextran supernatant is removed and the cells are resuspended in 10 mL of the plasma/dextran solution. […] The pellet is then resuspended into Tris buffer containing 1 mM calcium chloride to provide approximately 1.0 X 10^7 cells/mL.
Compounds are dissolved in dimethyl sulfoxide. […] Each concentration is tested in duplicate.
A 15 µL portion of Tris buffer containing 1 mM calcium chloride is added to each well of a 96 well microtiter plate. A 1 µL portion of drug solution or vehicle (dimethyl sulfoxide) is added to each well followed by the addition of an 75 µL portion of the cell suspension. The plates are gently mixed then allowed to stand at ambient temperature for 10 minutes. A 10 µL portion of 30 µM A23187 Calcium Ionophore (prepared by dissolving the ionophore in DMSO and then diluting 1:80 into the Tris buffer) is added to each well except the wells that contain the blanks (The blank wells measure the level of LTC4 production in the absence of A23187.). The plates are gently mixed then incubated at 37°C for 10 minutes.
Following incubation the plates are centrifuged at 2000 rpm for 1.5 minutes and the supernatant is removed as quickly as possible to stop the reaction. The supernatants are frozen at -20°C until they are assayed.
The supernatants are assayed for the presence of Leukotriene C4 by radioimmunoassay which is performed according to the manufacturer's (Advanced Magnetics; Cambridge, MA) instructions.

Test [1] concerns production of Leukotriene C4 in mouse peritoneal macrophages. The test can be described thus: In vitro mouse peritoneal macrophage Leukotriene C4 inhibition (zymosan-stimulated, LTC4 radioimmunoassay). It is filed as cell-based. The note with it: Zymosan 50 µg/mL. In outline:
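Adherent peritoneal macrophages from female CD-1 mice were preincubated 15 minutes at 37°C with compound (10, 1 and 0.1 µM, duplicate; DMSO). They were then stimulated with 50 µg/mL zymosan for 1 to 2 hours. Leukotriene C4 released into the medium was measured by radioimmunoassay.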

For test [2], the system named is production of Leukotriene B4. The test can be described thus: Rat ex vivo Leukotriene B4 inhibition (oral dosing, blood challenged with A23187). It is filed as in vivo, Rats. The conditions noted are these: two hours post dose. In outline:
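Male CD rats (250 g, non-fasted) dosed orally with compound in PEG 400, 5 rats/group; blood drawn by cardiac puncture before and 2 h after dosing. Heparinized blood challenged with A23187 calcium ionophore, 30 min at 37°C; plasma LTB4 measured by radioimmunoassay. % inhibition = post-dose vs pre-dose LTB4 level.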

In test [3] the test system is production of Leukotriene B4 (LTB4). The test can be described thus: Dog ex vivo Leukotriene B4 inhibition (oral dosing, blood challenged with calcium ionophore). The format is in vivo, beagle dogs. The conditions noted are these: each entry one dog, negative = stimulation of LTB4 production; for % Inhibition 6 hour: 6 hour post dose; for inhibition at 5 mg/kg: Canis lupus familiaris, po. As for the experimental part: The test method described below measures the ability of a compound when administered orally to dogs to inhibit the production of Leukotriene B4 (LTB4) in their blood which is drawn and challenged at selected time points.
The test is conducted in beagle dogs (male and female; about 10 Kg). Prior to starting, the neck area of the beagle is shaved to allow easy access to the jugular vein. A 3-4 mL sample of blood is drawn from the jugular vein into a heparinized vacutainer. The dog is then dosed using a tube long enough to reach its stomach. The compound is dissolved in PEG 400 at a concentration such that the appropriate dose can be administered in approximately 5 mL. Immediately after the compound is given, a flush using 5 mL of vehicle is given to rinse the dosing tube. At selected time points following the dose, a 3-4 mL sample of blood is drawn.
The blood samples that have been drawn are challenged as soon as possible. A 0.5 mL portion of blood is aliquoted into 3 tubes (1 mL microtiter tubes). A 1 µL portion of 25 mM calcium ionophore in dimethyl sulfoxide is added to 2 of the tubes. A 1 µL portion of dimethyl sulfoxide is added to the third tube. The tubes are lightly mixed then placed in a 37°C water bath for 30 minutes. The tubes are centrifuged at 11,000 rpm for 3 minutes and the plasma supernatant is transferred to clean tubes. A 50 µL portion of this plasma is added to a I mL microtiter tube containing 200 µL of methanol. The tubes are placed in the freezer at -20°C for at least 1 hour then centrifuged at 2000 rpm for 10 minutes. A 10 µL portion of the methanol supematant is dried under vacuum at ambient temperature and then reconstituted in LTB4 buffer. The amount of LTB4 in the sample is determined by radioimmunoassay performed according to the manufacturer's (Advanced Magnetics; Cambridge, MA) instructions. Percent inhibition values are obtained by comparing the level of LTB4 in the post-dose sample to the level in the pre-dose sample according to the equation below. % Inhibition =((LTB4 predose) - (LTB4 postdose))/((LTB4 predose))X 100 [formula]
A number of the compounds that are useful in the practice of the method of the invention were tested. The results are shown in Table 15 below where each entry represents the results from one dog. A negative number indicates stimulation of LTB4 production. All compounds were tested at a dose of 5 mg/Kg.

Setting [4] is: 1 h, 1 hour post dose, read-out: % Inhibition 1 hour.
[5] abbreviates: 2 h, 2 hour post dose, read-out: % Inhibition 2 hour.

The values that follow come from patent publication EP0777471B1, “INHIBITION OF LEUKOTRIENE BIOSYNTHESIS WITH UREA DERIVATIVES” (MINNESOTA MINING AND MANUFACTURING COMPANY, priority 1994, dated 1996).

What is called IC50 is the midpoint of a concentration-inhibition curve. A word on the inhibition: it is the share of the control response that was lost under treatment.

Where “and” joins values, the source holds several entries; their conditions need not be identical. Equal values may be shown once. Read-outs that look alike come from different tables or passages of the source.

Turning to `CCN(O)C(=O)Nc1ccccc1` [Compound 43, 1-ethyl-1-hydroxy-3-phenylurea], the IC50 is 30 nM at 5-lipoxygenase and 900 nM in test [1]. In addition, the “%I” value in test [2] (20 mg/Kg) amounted to 12%; in test [2] (50 mg/Kg), 16%.

As to `CSc1cccc(NC(=O)N(C)O)c1` [Compound 3, 1-hydroxy-1-methyl-3-[3-(methylthio)phenyl]urea], at 5-lipoxygenase, the IC50 stood at 82 nM. Besides, the “%I” value in test [2] (5 mg/Kg) is 39%. Besides, in test [3] (5 mg/Kg, 2 hour post dose), the “% Inhibition 2 hour” value came to 99%. Moreover, the “% Inhibition 4 hour” value in test [3] (5 mg/Kg, 4 hour post dose) is given as 95%. In test [3] (5 mg/Kg), the “% Inhibition 6 hour” value is 51% and 84%. For the same compound, the inhibition at 5 mg/kg in test [3] (setting [4]) was 100%; in test [3] (setting [5]) it was 100%; in test [3] (4 h, 4 hour post dose, read-out: % Inhibition 4 hour) it was 83%.

Regarding `COc1cccc(NC(=O)N(O)C(C)C)c1` [Compound 22, 1-hydroxy-3-(3-methoxyphenyl)-1-(1-methylethyl)urea], the IC50 on 5-lipoxygenase came to 740 nM; in test [1] it was 300 nM. The “% Inhibition 2 hour” value in test [3] (5 mg/Kg, 2 hour post dose) is 78% and -140%. Moreover, the inhibition at 5 mg/kg in test [3] (setting [4]) was found to be 100%.

Regarding `Cc1cccc(C)c1NC(=O)N(O)C(C)C` [Compound 26, 3-(2,6-dimethylphenyl)-1-hydroxy-1-(1-methylethyl)urea], the IC50 was more than 10000 nM on 5-lipoxygenase and more than 1000 nM in test [1].

In the case of `CSc1ccc(NC(=O)N(O)C2CCCCC2)cc1` [Compound 31, 1-Cyclohexyl-1-hydroxy-3-[4-(methylthio)phenyl]urea], the IC50 on 5-lipoxygenase stood at 6 nM; in test [1], 200 nM. The “%I” value in test [2] (25 mg/Kg) came to 40%.

Regarding `CSc1cccc(NC(=O)N(O)CC(C)C)c1` [Compound 58, 1-Hydroxy-1-(2-methylpropyl)-3-[3-(methylthio)phenyl]urea], the concentration for half-maximal inhibition (IC50) came to 2 nM on 5-lipoxygenase and 100 nM in test [1]. Further, the “% Inhibition 1 hour” value in test [3] (5 mg/Kg, 1 hour post dose) was 1% and -24%. Further, in test [3] (5 mg/Kg, 2 hour post dose), the “% Inhibition 2 hour” value was -21% and -35%. Moreover, the “% Inhibition 4 hour” value in test [3] (5 mg/Kg, 4 hour post dose) is -43% and -63%. In test [3] (5 mg/Kg), the “% Inhibition 6 hour” value is 8% and -34%.

Turning to `CN(O)C(=O)Nc1ccc(F)cc1` [Compound 11, 3-(4-fluorophenyl)-1-hydroxy-1-methylurea], the IC50 at 5-lipoxygenase came to 49 nM. Also, the figures for the “%I” value in test [2] (20 mg/Kg) and in test [2] (50 mg/Kg) were 26% and 20%, respectively. Further, the “% Inhibition 4 hour” value in test [3] (5 mg/Kg, 4 hour post dose) is 77% and 41%. Further, the “% Inhibition 6 hour” value in test [3] (5 mg/Kg) is -17% and 30%. In addition, the inhibition at 5 mg/kg in test [3] (setting [4]) and in test [3] (setting [5]) was 100% each time.

For the compound `CSc1cccc(NC(=O)NO)c1` [Compound 34, 1-hydroxy-3-[3-(methylthio)phenyl]urea], the IC50 is 460 nM at 5-lipoxygenase and more than 10000 nM in test [1]. For the same compound, the “%I” value in test [2] (25 mg/Kg) is recorded as -2.9%.
